# Assay results as given in patent US9937240B2, “Peptide having fibrosis inhibitory activity and composition containing same” (GemVax & KAEL Co., Ltd., priority 2014, dated 2018).
# Tests used:
# AsPC1 cells = experiment: AsPC1 cell xenograft model: fibrosis, cancer cells and mouse weight; assay type: in vivo, nude mice; settings: for fibrosis (collagen parts stained in blue color in cancer tissue): administration starting 10 days after inoculation, PEP1 2 mg/kg once a day s.c.
# Experimental: To verify in vivo anticancer effects of PEP1 and gemcitabine on pancreatic cancer, xenograft experiments were performed using AsPC1 cell lines. A xenografting method used herein is as follows.
# Reagents and materials used for the experiment are as follows. After powdery PEP1 was dissolved in 0.2 μm filtered sterile water, aliquots were stored at −70° C. and then dissolved before use, and gemcitabine was dissolved in 100% saline. 5-fluorouracil was dissolved in DMSO.
# AsPC1 cell lines (Cell #6×10^5 cells/[…]), which were cell lines used in the experiment, are human pancreatic cancer metastatic cells purchased from the American Type Cell Culture (ATCC, Rockville, Md.).
# AsPC1 cells were injected into each of nude mouse experiment groups (1) to (4).
# The cultured 5×10^6 AsPC1 cells were subcutaneously injected into nude mice (BALB/c-nu/nu nude mice, purchased from Joongang Laboratory animal, Seoul, Korea). The injection was performed until cancer was grown to a size of 100 mm^3 (about 10 days). Following cancer engraftment, the mice were divided into groups, each group having a similar average weight, and then either or both of gemcitabine and Pep1 were subcutaneously and intraperitoneally injected into the mice according to the conditions for each of the four experiment groups below (refer to FIG. 1). Cancer volume was measured with calipers and calculated by the following formula [width^2×length×0.52].
# After grafting, either or both of Pep1 and gemcitabine were administered to each of the four experiment groups.
# (1) AsPC1 grafting control
# (2) AsPC1 grafting+PEP1 2 mg/kg (once a day, s.c) administered group
# After then, weight of each mouse was quantified every time. Also, cancer tissue sample preparation and cell proliferation marker (PCNA)/apoptosis marker (TUNEL) staining were performed.
# For analyses of experiment results, averages between several experiment groups was assessed by a student's t-test.
# Smad2 = experiment: TGF-β inhibition in HepG2 cell lines, qRT-PCR of Smad2 mRNA; assay type: cell-based, human; settings: HepG2, 10 ng/ml TGF-β1; PEP1 1, 5 and 10 μM; 48-hour culture; reference gene GAPDH
# Experimental: (§1) To verify the TGF-β inhibitory effect of PEP1, which is considered as the main cause of fibrosis, an experiment for confirming a TGF-β signaling inhibiting action in HepG2 cell lines was performed as follows.
# (§2) Reagents and materials used in the experiment are as follows. After powdery PEP1 was dissolved in 0.2 μm filtered sterile water, aliquots were stored at −70° C. and then dissolved before use. As a cell line, HepG2 (ATCC HB-8065; American Type Culture Collection) was used, and recombinant human TGF-β1 was dissolved in 4 mM HCl, thereby preparing a 10 μg/mL stock. SB431542 (Sigma) used as a positive control was prepared in a 10 mM stock.
# (§3) 2×10^6 HepG2 cells (ATCC HB-8065) were seeded into a 60 mm petri-dish and cultured in a CO2 incubator for 16 hours. Afterward, media were transferred to serum-free media (SFM), and then the cells were further cultured for 24 hours. […]
# (§4) RNA was extracted from peptide-treated cells using an RNEASY® Plus Mini Kit (Qiagen) (RNA extraction kit) according to the manufacture's protocol. The extracted RNA was quantified, and then cDNA was synthesized from 1 μg of total RNA using a reverse transcription system (Promega). […] As TGF-β-related biomarkers, mRNA expression of fibronectin (FN), Smad2 and Smad4 were analyzed, and as a reference gene, GAPDH was used. […]
# Smad4 = experiment: TGF-β inhibition in HepG2 cell lines, qRT-PCR of Smad4 mRNA; assay type: cell-based, human; settings: HepG2, 10 ng/ml TGF-β1; PEP1 1, 5 and 10 μM; 48-hour culture; reference gene GAPDH
# Experimental: as §1, §2, §3, §4
# [1] = tested on: Normal human epidermal keratinocytes (NHEKs); experiment: Cell differentiation of radiation-exposed NHEK cell lines; assay type: cell-based; settings: 1 mM of PEP1, 6 Gy ionizing radiation, cultured 10 days
# Experimental: To confirm PEP1 effects on fibrosis induced by radiation exposure for anticancer treatment and other tumor treatments, an experiment for confirming a TGF-β inhibitory effect of PEP1 in radiation-exposed NHEKs was performed.
# (§5) PEP1 synthesized according to Example 1 and a placebo (sham) as a control were prepared. Normal human epidermal keratinocytes (NHEKs) were cultured in a monolayer to be used for a radiation exposure experiment. For the radiation exposure experiment, ionized radiation was used at an intensity of 6 Gy.
# To examine the cell differentiation of NHEK cell lines according to radiation exposure, NHEKs were treated with each of the placebo and 1 mM of PEP1, and then divided into radiation-exposed groups and non-exposed groups, followed by culturing for 10 days (refer to FIG. 13).
# GRHL2 = experiment: Biomarker expression in radiation-exposed NHEKs: GRHL2; assay type: cell-based, human; settings: 1 mM of PEP1, 10 days after radiation exposure (6 Gy)
# Experimental: as §5
# (§6) Also, to examine the change in expression levels of biomarkers for the NHEK cell lines due to the radiation exposure, the NHEKs were treated with each of the placebo and 1 mM of PEP1 and divided into non-exposed groups (−) and radiation-exposed groups (+), and then expression levels of the biomarkers were examined at day 1 and day 10 after the radiation exposure (refer to FIG. 14). In measurement of the expression levels of the biomarkers, GAPDH was used as a reference control.
# (§7) Western blotting procedures were as follows. Peptide-treated cells were washed with PBS twice, collected into a 1.5 mL centrifuge tube using a cell scraper, followed by centrifugation (1,000 rpm, 4° C., 2 minutes). After removal of the obtained supernatant, 100 μL of RIPA buffer was added to the NHEKs. […]
# (§8) […] of protein was transferred to a PVDF membrane (Millipore) by 8% sodium dodecyl sulfate-polyacrylamide gel electrophoresis (SDS-PAGE). […] Afterward, ECL detection (Amersham Pharmacia Biotech) was performed, and obtained images were analyzed using an image analyzer (GE Healthcare, IMAGEQUANT™ LAS 4000).
# p63 = experiment: Biomarker expression in radiation-exposed NHEKs: p63; assay type: cell-based, human; settings: 1 mM of PEP1, 10 days after radiation exposure (6 Gy)
# Experimental: as §5, §6, §7, §8
# N-Cad = experiment: Biomarker expression in radiation-exposed NHEKs: N-Cad; assay type: cell-based, human; settings: 1 mM of PEP1, after radiation exposure (6 Gy)
# Experimental: as §5, §6, §7, §8
# P-Akt = experiment: Biomarker expression in radiation-exposed NHEKs: P-Akt; assay type: cell-based, human; settings: 1 mM of PEP1, after radiation exposure (6 Gy)
# Experimental: as §5, §6, §7, §8
# NHEK cell lines = experiment: In vitro radiation-induced premature senescence (RIPS) marker expression in NHEKs; assay type: cell-based, human; settings: radiation 0 to 10 Gy, qRT-PCR, western blotting, immunofluorescence staining
# Experimental: (§9) PEP1 synthesized according to Example 1 and a placebo (sham) used as a control were prepared. NHEKs were cultured in a monolayer to prepare an in vitro radiation exposure experiment. For in vitro, in situ, and in vivo radiation exposure experiments, ionized radiation was used at various intensities ranging from 0 to 10 Gy (0, 2, 4, 6, 8, and 10 Gy).
# The expression level of each marker was measured using qRT-PCR, western blotting, and immunofluorescence staining. For the measurement of the levels, senescence-associated β-galactosidase (SA β-Gal), p16INK4A, p-p53Ser15, p-ATM, γ-H2AX, 53BP1,H3K9me3, HP1γ, and HMGA2 were used as markers.
# oral mucositis model = experiment: In vivo oral mucositis model, radiation-induced tongue ulcer; settings: C3H mice, PEP1 1 mg/kg intraperitoneally, 6 Gy IR for five consecutive days
# Experimental: as §9
# (§10) Meanwhile, experimental animals were divided into two animal models. The first model was an oral mucositis model, which was prepared by inducing an ulcer to the tongue of each C3H mouse by exposing the head and the neck to radiation (6 Gy, IR) for 5 straight days. The second model is a dermal fibrosis model, which was prepared by inducing local scleroderma by subcutaneously injecting 0.1 cc of a dilution of bleomycin which was known as the cause of pulmonary fibrosis in a 0.9% NaCl aqueous solution at a concentration of 0.5 mg/ml once a day for 24 to 28 days.
# For the in vivo experiment, first, in the first oral mucositis model, C3H mice were divided into groups, each intraperitoneally treated with a placebo or PEP1 to give a final dose of 1 mg/kg and exposed to radiation (6 Gy, IR) for five consecutive days to induce a tongue ulcer corresponding to an oral mucositis. Ten days later, the mice were sacrificed to collect tongue tissue, which was stained with toluidine blue and by H&E staining, to perform biopsy. […]
# dermal fibrosis model = experiment: In vivo dermal fibrosis model, bleomycin-induced scleroderma; settings: C3H mice, PEP1 50 mg/kg intraperitoneally, bleomycin subcutaneously for 24 to 28 days
# Experimental: as §10, with “28 days. Meanwhile, in the second dermal fibrosis model, C3H mice were divided into groups, each intraperitoneally treated with a placebo or PEP1 to give the final dose of 50 mg/kg, and subcutaneously treated with bleomycin at the concentrations mentioned in the preparation of the experimental animals for 24 to 28 days. 28 days later, the mice were sacrificed to detect scleroderma, followed by an experiment for examining fibrosis diffusion using Masson's trichrome staining.” for “28 days.”
# fibronectin (FN) = experiment: TGF-β inhibition in HepG2 cell lines, qRT-PCR of fibronectin mRNA; assay type: cell-based, human; settings: HepG2, TGF-β1 treated; positive control
# Experimental: as §1, §2, §3, §4
# [2] = nude mice inoculated with AsPC1 cells, gemcitabine 125 mg/kg once every third day i.p.
Compound,"weight of a mouse (AsPC1 cells; day 20 after the administration, compared between the four experiment groups)",fibrosis (collagen parts stained in blue color in cancer tissue) (AsPC1 cells; [2]),cancer cells (parts stained in red color) (AsPC1 cells; [2]),Smad2 mRNA expression (Smad2),Smad4 mRNA expression (Smad4),cell differentiation (fibrosis development) after radiation exposure [1],GRHL2 expression level (GRHL2),p63 expression level (p63),N-Cad expression level (N-Cad),P-Akt expression level (degree of cell survival) (P-Akt),"radiation-induced premature senescence (RIPS), indicated by marker expression (NHEK cell lines)","defensive effect against exposure to radiation, indicated by biopsy (oral mucositis model)","defensive effect against induction of tissue fibrosis, indicated by biopsy (dermal fibrosis model)",fibronectin inhibition ratio (fibronectin (FN)) [%]
Nc1ccn([C@@H]2O[C@H](CO)[C@@H](O)C2(F)F)c(=O)n1 [gemcitabine],the smallest,fibrosis was considerably developed,cancer cells were killed,–,–,–,–,–,–,–,–,–,–,–
"EARPALLTSRLRFIPK (listed as Homo sapiens) [PEP1, telomerase-derived peptide, which consists of 16 amino acids; position [611-626] on telomerase]",–,fibrosis was considerably inhibited,–,concentration-dependently inhibited,concentration-dependently inhibited,hardly showed differentiation,increased,increased,decreased,increased,RIPS inhibitory effect,defensive effects,defensive effects,–
NC(=O)c1ccc(-c2nc(-c3ccc4c(c3)OCO4)c(-c3ccccn3)[nH]2)cc1 [SB431542],–,–,–,–,–,–,–,–,–,–,–,–,–,60.7
